# From ChEMBL document CHEMBL2202954, “The effect of PLC-γ2 inhibitors on the growth of human tumour cells” (2012)
# Legend:
# Format in all cases: functional
# [1] = tested on: UACC-62; assay: Cytotoxicity against human UACC62 cells assessed as cellular growth at 10 uM by SRB assay
# [2] = tested on: IGROV-1; assay: Cytotoxicity against human IGROV1 cells assessed as cellular growth at 10 uM by SRB assay
# [3] = tested on: HCC 2998; assay: Cytotoxicity against human HCC2998 cells assessed as cellular growth at 10 uM by SRB assay
# [4] = tested on: BT-549; assay: Cytotoxicity against human BT549 cells assessed as cellular growth at 10 uM by SRB assay
# [5] = tested on: SF-295; assay: Cytotoxicity against human SF295 cells assessed as cellular growth at 10 uM by SRB assay
# [6] = tested on: SF-268; assay: Cytotoxicity against human SF268 cells assessed as cellular growth at 10 uM by SRB assay
# [7] = tested on: OVCAR-4; assay: Cytotoxicity against human OVCAR4 cells assessed as cellular growth at 10 uM by SRB assay
# [8] = tested on: NCI-H23; assay: Cytotoxicity against human NCI-H23 cells assessed as cellular growth at 10 uM by SRB assay
# [9] = tested on: UACC-257; assay: Cytotoxicity against human UACC257 cells assessed as cellular growth at 10 uM by SRB assay
# [10] = tested on: MDA-MB-231; assay: Cytotoxicity against human MDA-MB-231 cells assessed as cellular growth at 10 uM by SRB assay
# [11] = tested on: A549; assay: Cytotoxicity against human A549 cells assessed as cellular growth at 10 uM by SRB assay
# [12] = tested on: MCF7; assay: Cytotoxicity against human MCF7 cells assessed as cellular growth at 10 uM by SRB assay
# [13] = tested on: A498; assay: Cytotoxicity against human A498 cells assessed as cellular growth at 10 uM by SRB assay
# [14] = tested on: OVCAR-3; assay: Cytotoxicity against human OVCAR3 cells assessed as cellular growth at 10 uM by SRB assay
# [15] = tested on: HT-29; assay: Cytotoxicity against human HT-29 cells assessed as cellular growth at 10 uM by SRB assay
# [16] = tested on: TK-10; assay: Cytotoxicity against human TK10 cells assessed as cellular growth at 10 uM by SRB assay
# [17] = tested on: HOP-92; assay: Cytotoxicity against human HOP92 cells assessed as cellular growth at 10 uM by SRB assay
# [18] = tested on: M14; assay: Cytotoxicity against human M14 cells assessed as cellular growth at 10 uM by SRB assay
# [19] = tested on: SK-OV-3; assay: Cytotoxicity against human SKOV3 cells assessed as cellular growth at 10 uM by SRB assay
# [20] = tested on: OVCAR-8; assay: Cytotoxicity against human OVCAR8 cells assessed as cellular growth at 10 uM by SRB assay
# [21] = tested on: SW-620; assay: Cytotoxicity against human SW620 cells assessed as cellular growth at 10 uM by SRB assay
# [22] = tested on: NCI-H522; assay: Cytotoxicity against human NCI-H522 cells assessed as cellular growth at 10 uM by SRB assay
# [23] = tested on: SK-MEL-28; assay: Cytotoxicity against human SK-MEL-28 cells assessed as cellular growth at 10 uM by SRB assay
# [24] = tested on: SNB-19; assay: Cytotoxicity against human SNB19 cells assessed as cellular growth at 10 uM by SRB assay
# [25] = tested on: HCT-15; assay: Cytotoxicity against human HCT15 cells assessed as cellular growth at 10 uM by SRB assay
# [26] = tested on: EKVX; assay: Cytotoxicity against human EKVX cells assessed as cellular growth at 10 uM by SRB assay
# [27] = tested on: HOP-62; assay: Cytotoxicity against human HOP62 cells assessed as cellular growth at 10 uM by SRB assay
# [28] = tested on: SF-539; assay: Cytotoxicity against human SF539 cells assessed as cellular growth at 10 uM by SRB assay
# [29] = tested on: SK-MEL-5; assay: Cytotoxicity against human SK-MEL-5 cells assessed as cellular growth at 10 uM by SRB assay
# [30] = tested on: DU-145; assay: Cytotoxicity against human DU145 cells assessed as cellular growth at 10 uM by SRB assay
# [31] = tested on: MDA-MB-435; assay: Cytotoxicity against human MDA-MB-435 cells assessed as cellular growth at 10 uM by SRB assay
# [32] = tested on: OVCAR-5; assay: Cytotoxicity against human OVCAR5 cells assessed as cellular growth at 10 uM by SRB assay
# [33] = tested on: Hs-578T; assay: Cytotoxicity against human Hs578T cells assessed as cellular growth at 10 uM by SRB assay
# [34] = tested on: MOLT-4; assay: Cytotoxicity against human MOLT4 cells assessed as cellular growth at 10 uM by SRB assay
# [35] = tested on: UO-31; assay: Cytotoxicity against human UO31 cells assessed as cellular growth at 10 uM by SRB assay
# [36] = tested on: RXF 393; assay: Cytotoxicity against human RXF393 cells assessed as cellular growth at 10 uM by SRB assay
# [37] = tested on: HCT-116; assay: Cytotoxicity against human HCT116 cells assessed as cellular growth at 10 uM by SRB assay
# [38] = tested on: T47D; assay: Cytotoxicity against human T47D cells assessed as cellular growth at 10 uM by SRB assay
# [39] = tested on: K562; assay: Cytotoxicity against human K562 cells assessed as cellular growth at 10 uM by SRB assay
# [40] = tested on: LOX IMVI; assay: Cytotoxicity against human LOXIMVI cells assessed as cellular growth at 10 uM by SRB assay
# [41] = tested on: CCRF-CEM; assay: Cytotoxicity against human CCRF-CEM cells assessed as cellular growth at 10 uM by SRB assay
# [42] = tested on: KM12; assay: Cytotoxicity against human KM12 cells assessed as cellular growth at 10 uM by SRB assay
# [43] = tested on: HL-60(TB); assay: Cytotoxicity against human HL-60(TB) cells assessed as cellular growth at 10 uM by SRB assay
# [44] = tested on: SNB-75; assay: Cytotoxicity against human SNB75 cells assessed as cellular growth at 10 uM by SRB assay
# [45] = tested on: COLO 205; assay: Cytotoxicity against human COLO205 cells assessed as cellular growth at 10 uM by SRB assay
# [46] = tested on: 786-0; assay: Cytotoxicity against human 786-0 cells assessed as cellular growth at 10 uM by SRB assay
# [47] = tested on: Malme-3M; assay: Cytotoxicity against human MALME-3M cells assessed as cellular growth at 10 uM by SRB assay
# [48] = tested on: NCI-H322M; assay: Cytotoxicity against human NCI-H322M cells assessed as cellular growth at 10 uM by SRB assay
# [49] = tested on: U-251; assay: Cytotoxicity against human U251 cells assessed as cellular growth at 10 uM by SRB assay
# [50] = tested on: NCI-H460; assay: Cytotoxicity against human NCI-H460 cells assessed as cellular growth at 10 uM by SRB assay
# [51] = tested on: NCI-H226; assay: Cytotoxicity against human NCI-H226 cells assessed as cellular growth at 10 uM by SRB assay
# [52] = tested on: PC-3; assay: Cytotoxicity against human PC3 cells assessed as cellular growth at 10 uM by SRB assay
# [53] = tested on: MDA-MB-468; assay: Cytotoxicity against human MDA-MB-468 cells assessed as cellular growth at 10 uM by SRB assay
# [54] = tested on: SN12C; assay: Cytotoxicity against human SN12C cells assessed as cellular growth at 10 uM by SRB assay
# [55] = tested on: RPMI-8226; assay: Cytotoxicity against human RPMI8226 cells assessed as cellular growth at 10 uM by SRB assay
# [56] = tested on: ACHN; assay: Cytotoxicity against human ACHN cells assessed as cellular growth at 10 uM by SRB assay
# [57] = tested on: CAKI-1; assay: Cytotoxicity against human Caki1 cells assessed as cellular growth at 10 uM by SRB assay
# [58] = Cytotoxicity against human NCI-ADR-RES cells assessed as cellular growth at 10 uM by SRB assay
# [59] = tested on: SR; assay: Cytotoxicity against human SR cells assessed as cellular growth at 10 uM by SRB assay
# [60] = tested on: SK-MEL-2; assay: Cytotoxicity against human SK-MEL-2 cells assessed as cellular growth at 10 uM by SRB assay
smiles,measurement,setting,value
O=C(NCc1cccnc1)c1sc2cc([N+](=O)[O-])ccc2c1Cl,Activity,[1],89.48%
same,Activity,[2],106.67%
same,Activity,[3],104.9%
same,Activity,[4],97.89%
same,Activity,[5],92.94%
same,Activity,[6],99.64%
same,Activity,[7],102.6%
same,Activity,[8],97.31%
same,Activity,[9],92.34%
same,Activity,[10],117.28%
same,Activity,[11],91.87%
same,Activity,[12],92.75%
same,Activity,[13],66.73%
same,Activity,[14],100.57%
same,Activity,[15],106.56%
same,Activity,[16],122.07%
same,Activity,[17],98.76%
same,Activity,[18],108.24%
same,Activity,[19],91.06%
same,Activity,[20],96.34%
same,Activity,[21],96.99%
same,Activity,[22],97.09%
same,Activity,[23],110.01%
same,Activity,[24],96.96%
same,Activity,[25],97.65%
same,Activity,[26],90.5%
same,Activity,[27],97.3%
same,Activity,[28],103.86%
same,Activity,[29],96.88%
same,Activity,[30],105.44%
same,Activity,[31],95.22%
same,Activity,[32],105.26%
same,Activity,[33],92.59%
same,Activity,[34],93.36%
same,Activity,[35],76.73%
same,Activity,[36],111.54%
same,Activity,[37],99.66%
same,Activity,[38],84.08%
same,Activity,[39],93.09%
same,Activity,[40],102.15%
same,Activity,[41],100.08%
same,Activity,[42],96.39%
same,Activity,[43],110.91%
same,Activity,[44],91.37%
same,Activity,[45],118.05%
same,Activity,[46],96.95%
same,Activity,[47],105.28%
same,Activity,[48],101.48%
same,Activity,[49],90.3%
same,Activity,[50],106.27%
same,Activity,[51],97.25%
same,Activity,[52],101.92%
same,Activity,[53],106.53%
same,Activity,[54],92.4%
same,Activity,[55],94.49%
same,Activity,[56],106.03%
same,Activity,[57],85.26%
same,Activity,[58],95.58%
Cc1ccc(S(=O)(=O)NC2=NC(=O)/C(=C\c3ccccc3)S2)cc1,Activity,[1],96.39%
same,Activity,[2],124.8%
same,Activity,[3],106.96%
same,Activity,[4],113.45%
same,Activity,[5],114.32%
same,Activity,[6],99.46%
same,Activity,[7],96.34%
same,Activity,[8],107.93%
same,Activity,[9],104.4%
same,Activity,[10],100.89%
same,Activity,[11],103.33%
same,Activity,[12],97.41%
same,Activity,[13],11.33%
same,Activity,[14],116.48%
same,Activity,[15],109.22%
same,Activity,[16],104.1%
same,Activity,[18],110.84%
same,Activity,[19],107.71%
same,Activity,[20],102.48%
same,Activity,[21],109.53%
same,Activity,[22],85.18%
same,Activity,[23],114.12%
same,Activity,[24],108.61%
same,Activity,[25],104.84%
same,Activity,[26],99.77%
same,Activity,[27],100.56%
same,Activity,[28],96.06%
same,Activity,[29],100.29%
same,Activity,[30],111.67%
same,Activity,[31],110.94%
same,Activity,[32],111.88%
same,Activity,[33],128.48%
same,Activity,[34],86.66%
same,Activity,[35],90.79%
same,Activity,[36],118.7%
same,Activity,[37],111.6%
same,Activity,[38],100.5%
same,Activity,[39],94.57%
same,Activity,[40],99.09%
same,Activity,[41],92.01%
same,Activity,[42],115%
same,Activity,[43],92.36%
same,Activity,[44],88.62%
same,Activity,[46],107.82%
same,Activity,[47],112.01%
same,Activity,[48],114.86%
same,Activity,[59],95.9%
same,Activity,[49],98.58%
same,Activity,[50],119.27%
same,Activity,[51],108.84%
same,Activity,[52],111.74%
same,Activity,[60],117.54%
same,Activity,[53],110.23%
same,Activity,[54],99.26%
same,Activity,[55],104.04%
same,Activity,[56],103.63%
same,Activity,[57],102.92%
same,Activity,[58],108.06%
